Test results taken from PubChem BioAssay AID330 (DTP/NCI, 2004).
Where “and” joins values, the source holds several entries; their conditions need not be identical. Equal entries are not always repeated. Toxic doses and inconclusive results are not listed. Rule for the calls: active = survival T/C of 150% or more; inactive = T/C below 125% in these data.

Tested on: P388 leukemia ip, CD2F1 mice, survival T/C
Assay: NCI In Vivo Anticancer Drug Screen. Data for tumor model P388 Leukemia (intraperitoneal) in CD2F1 (CDF1) mice
Details: endpoint: median survival time, higher = longer survival
Outline: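 Mice carrying the transplanted tumor received test compound or vehicle. Survival was recorded in each group, and the value is the treated-group measurement divided by that of the vehicle-treated control group.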

[1] = dose: 50.0 mg/kg/injection, schedule: Q01DX005 (ip), vehicle: saline with Tween-80
[2] = dose: 100.0 mg/kg/injection, schedule: Q01DX005 (ip), vehicle: saline with Tween-80
[3] = dose: 200.0 mg/kg/injection, schedule: Q01DX005 (ip), vehicle: saline with Tween-80
[4] = dose: 50.0 mg/kg/injection, schedule: Q01DX009 (ip), vehicle: saline with Tween-80
[5] = dose: 100.0 mg/kg/injection, schedule: Q01DX009 (ip), vehicle: saline with Tween-80
[6] = dose: 50.0 mg/kg/injection, schedule: Q01DX005 (ip), vehicle: Klucel (hydroxypropylcellulose) (HPC)
[7] = dose: 100.0 mg/kg/injection, schedule: Q01DX005 (ip), vehicle: Klucel (hydroxypropylcellulose) (HPC)
[8] = dose: 200.0 mg/kg/injection, schedule: Q01DX005 (ip), vehicle: Klucel (hydroxypropylcellulose) (HPC)
[9] = dose: 50.0 mg/kg/injection, schedule: Q01DX009 (ip), vehicle: Klucel (hydroxypropylcellulose) (HPC)
[10] = dose: 100.0 mg/kg/injection, schedule: Q01DX009 (ip), vehicle: Klucel (hydroxypropylcellulose) (HPC)
[11] = dose: 200.0 mg/kg/injection, schedule: Q01DX009 (ip), vehicle: Klucel (hydroxypropylcellulose) (HPC)
[12] = dose: 25.0 mg/kg/injection, schedule: Q01DX009 (ip), vehicle: saline with Tween-80
[13] = dose: 400.0 mg/kg/injection, schedule: Q01DX009 (ip), vehicle: saline with Tween-80
[14] = dose: 200.0 mg/kg/injection, schedule: Q01DX009 (ip), vehicle: saline with Tween-80

Measured: T/C

C[C@]12CC[C@H]3[C@@H](CCC4=CC(=O)CC[C@@H]43)[C@@H]1CC[C@@H]2OC(=O)N(CCCl)N=O
inactive: dose: 12.5 mg/kg/injection, schedule: Q01DX009 (ip), vehicle: other 123 % of control | dose: 15.0 mg/kg/injection, schedule: Q01DX009 (ip), vehicle: saline 96 % of control | dose: 15.0 mg/kg/injection, schedule: Q04DX003 (ip), vehicle: saline 100 % of control and 107 % of control | dose: 25.0 mg/kg/injection, schedule: Q01DX005 (ip), vehicle: other 104 % of control | dose: 25.0 mg/kg/injection, schedule: Q01DX009 (ip), vehicle: other 118 % of control | dose: 30.0 mg/kg/injection, schedule: Q01DX009 (ip), vehicle: saline 86 % of control | dose: 30.0 mg/kg/injection, schedule: Q04DX003 (ip), vehicle: saline 101 % of control and 106 % of control and 112 % of control | dose: 50.0 mg/kg/injection, schedule: Q01DX005 (ip), vehicle: other 96 % of control | dose: 60.0 mg/kg/injection, schedule: Q01DX009 (ip), vehicle: saline 91 % of control | dose: 60.0 mg/kg/injection, schedule: Q04DX003 (ip), vehicle: saline 98 % of control and 101 % of control and 120 % of control | dose: 120.0 mg/kg/injection, schedule: Q01DX009 (ip), vehicle: saline with Tween-80 86 % of control | dose: 120.0 mg/kg/injection, schedule: Q01DX009 (ip), vehicle: saline 92 % of control | dose: 120.0 mg/kg/injection, schedule: Q04DX003 (ip), vehicle: saline 102 % of control and 106 % of control

CN=C(NCCSCc1ccc2ccccc2n1)NS(=O)(=O)c1ccccc1
inactive: dose: 50.0 mg/kg/injection, schedule: Q01DX005 (ip), vehicle: saline 106 % of control | dose: 100.0 mg/kg/injection, schedule: Q01DX005 (ip), vehicle: saline 106 % of control | dose: 200.0 mg/kg/injection, schedule: Q01DX005 (ip), vehicle: saline 100 % of control

CCN(CC)C(=S)Cl
inactive: [1] 107 % of control | [2] 106 % of control | [3] 101 % of control

CC(=O)ON=C1C=CC(=C(C#N)c2ccccc2)C=C1
inactive: [4] 104 % of control | [5] 122 % of control

CC(=O)n1c(Cl)c(C=O)c2ccccc21
inactive: dose: 100.0 mg/kg/injection, schedule: Q01DX001 (ip), vehicle: Klucel (hydroxypropylcellulose) (HPC) 99 % of control | dose: 200.0 mg/kg/injection, schedule: Q01DX001 (ip), vehicle: Klucel (hydroxypropylcellulose) (HPC) 99 % of control | dose: 400.0 mg/kg/injection, schedule: Q01DX001 (ip), vehicle: Klucel (hydroxypropylcellulose) (HPC) 100 % of control

S=P(Oc1cc(Cl)cc(Cl)c1)(Oc1cc(Cl)cc(Cl)c1)Oc1cc(Cl)cc(Cl)c1
inactive: [6] 97 % of control | [7] 100 % of control | [8] 100 % of control

CCCCCCCCCCCCCCCC1=NCCN1
inactive: [1] 105 % of control | [2] 107 % of control

CCOC(=O)c1ccc(NC(=O)Nc2cc(Cl)ncn2)cc1
inactive: [9] 100 % of control | [10] 99 % of control | [11] 91 % of control

CC(C)(C)OCC(NC(=O)OC(C)(C)C)C(=O)O (stereo not drawn)
inactive: [1] 100 % of control | [2] 103 % of control | [3] 97 % of control

C=C1C2CCC3C(CCC4C35CCC[C@]4(C)CN3CCO[C@H]35)(C2)[C@H]1O (stereo partly drawn)
inactive: dose: 1.0 mg/kg/injection, schedule: Q01DX009 (ip), vehicle: Klucel (hydroxypropylcellulose) (HPC) 100 % of control | dose: 2.0 mg/kg/injection, schedule: Q01DX009 (ip), vehicle: Klucel (hydroxypropylcellulose) (HPC) 98 % of control | dose: 4.0 mg/kg/injection, schedule: Q01DX009 (ip), vehicle: Klucel (hydroxypropylcellulose) (HPC) 106 % of control | dose: 8.0 mg/kg/injection, schedule: Q01DX009 (ip), vehicle: Klucel (hydroxypropylcellulose) (HPC) 96 % of control

O=C(CNC(=O)c1ccccc1)N/N=C/c1ccc2c(c1)OCO2
inactive: [12] 100 % of control | [13] 96 % of control

COC(=O)C(Cc1ccccc1)NC(=O)C(Cc1cnc[nH]1)N(C(=O)OCc1ccccc1)C(=O)OCc1ccccc1 (stereo not drawn)
inactive: dose: 25.0 mg/kg/injection, schedule: Q01DX005 (ip), vehicle: saline with Tween-80 88 % of control | [1] 91 % of control | [2] 87 % of control | [3] 89 % of control

O=C(CCl)Nc1ccc(Cl)cc1C(=O)c1ccccc1
inactive: [4] 107 % of control | [5] 98 % of control | [14] 104 % of control

CC(=O)OCc1ccncc1
inactive: dose: 12.5 mg/kg/injection, schedule: Q01DX009 (ip), vehicle: distilled water + Tween-80 95 % of control | dose: 25.0 mg/kg/injection, schedule: Q01DX009 (ip), vehicle: distilled water + Tween-80 101 % of control | dose: 50.0 mg/kg/injection, schedule: Q01DX009 (ip), vehicle: distilled water + Tween-80 102 % of control | dose: 100.0 mg/kg/injection, schedule: Q01DX009 (ip), vehicle: distilled water + Tween-80 110 % of control | dose: 200.0 mg/kg/injection, schedule: Q01DX009 (ip), vehicle: distilled water + Tween-80 100 % of control | dose: 400.0 mg/kg/injection, schedule: Q01DX009 (ip), vehicle: distilled water + Tween-80 92 % of control

Cc1ccc(N2C(=O)CSC2=S)cc1C
inactive: dose: 50.0 mg/kg/injection, schedule: Q01DX009 (ip), vehicle: suspension in saline 90 % of control | dose: 100.0 mg/kg/injection, schedule: Q01DX009 (ip), vehicle: suspension in saline 90 % of control | dose: 200.0 mg/kg/injection, schedule: Q01DX009 (ip), vehicle: suspension in saline 103 % of control

C1CCN2CC3CC(CN4CCCC[C@@H]34)[C@@H]2C1
inactive: dose: 25.0 mg/kg/injection, schedule: Q01DX005 (ip), vehicle: Klucel (hydroxypropylcellulose) (HPC) 100 % of control

Cc1cc(=O)[nH]c(N/N=C/c2c(O)ccc3ccccc23)n1
inactive: dose: 12.5 mg/kg/injection, schedule: Q01DX009 (ip), vehicle: saline with Tween-80 93 % of control | [12] 88 % of control | [4] 87 % of control | [5] 102 % of control

CCCn1c(C)nc2ncn(-c3ccccc3)c2c1=O
inactive: [6] 101 % of control | [7] 102 % of control | [8] 101 % of control

Oc1c(CN2CCOCC2)cc(CN2CCOCC2)cc1CN1CCOCC1
inactive: [4] 94 % of control | [5] 103 % of control | [14] 100 % of control | [13] 100 % of control

CCCCCCCC/C=C\CCCCCCCCCCCC(=O)O
inactive: [9] 100 % of control | dose: 50.0 mg/kg/injection, schedule: Q01DX009 (ip), vehicle: other 100 % of control | [10] 92 % of control | dose: 100.0 mg/kg/injection, schedule: Q01DX009 (ip), vehicle: other 106 % of control | [11] 91 % of control | dose: 200.0 mg/kg/injection, schedule: Q01DX009 (ip), vehicle: other 102 % of control | dose: 400.0 mg/kg/injection, schedule: Q01DX009 (ip), vehicle: Klucel (hydroxypropylcellulose) (HPC) 98 % of control | dose: 400.0 mg/kg/injection, schedule: Q01DX009 (ip), vehicle: other 94 % of control

CC(C)=Cc1cc(CCC/C(C)=C/Cc2c(O)cc(C)c(C(=O)O)c2O)co1
inactive: dose: 4.5 mg/kg/injection, schedule: Q01DX005 (ip), vehicle: Klucel (hydroxypropylcellulose) (HPC) 100 % of control | dose: 9.0 mg/kg/injection, schedule: Q01DX005 (ip), vehicle: Klucel (hydroxypropylcellulose) (HPC) 91 % of control | dose: 18.0 mg/kg/injection, schedule: Q01DX005 (ip), vehicle: Klucel (hydroxypropylcellulose) (HPC) 92 % of control | dose: 36.0 mg/kg/injection, schedule: Q01DX005 (ip), vehicle: Klucel (hydroxypropylcellulose) (HPC) 98 % of control | [6] 105 % of control | dose: 72.0 mg/kg/injection, schedule: Q01DX005 (ip), vehicle: Klucel (hydroxypropylcellulose) (HPC) 88 % of control | [7] 107 % of control | [8] 98 % of control

Cc1ncc(CCl)n1Cc1ccccc1
inactive: dose: 15.0 mg/kg/injection, schedule: Q01DX005 (ip), vehicle: saline 105 % of control | dose: 30.0 mg/kg/injection, schedule: Q01DX005 (ip), vehicle: saline 106 % of control | dose: 60.0 mg/kg/injection, schedule: Q01DX005 (ip), vehicle: saline 99 % of control
